# Reference: US20050043331A1, “Substituted 3-(2,5-disubstituted)pyridyl-4-aryl pyrroles for treating inflammatory diseases” (priority 2002, published 2005)
# Where two headings read alike, the source gives them in different places.
# Assays:
# TNF-α [1] = experiment: In-vitro whole cell assay for TNF-α inhibition (LPS-stimulated PBMC, ELISA); type: cell-based; conditions: TNF-α by ELISA
# Method: Freshly obtained venous blood was anticoagulated with heparin, diluted with an equal volume of phosphate buffered saline (“PBS”) and placed in a sterile tube or other container. Aliquots (30 mL) of this mixture were transferred to centrifuge tubes, which were underlaid with Ficoll-Hypaque (15 mL). The prepared tubes were centrifuged at 400×g, without braking, for 30 min at room temperature. Approximately ½ to ⅔ of the platelet layer above the mononuclear cell band was removed with a pipette. The majority of the mononuclear cell layer was carefully removed using a pipette and these PBMC's were diluted with PBS and spun at 600×g for 15 min. The resulting PBMC's were washed with another portion of PBS and spun at 400×g for 10 min at room temperature. The recovered pellets were diluted in low endotoxin RPMI/1% FCS culture medium, and gave a cell concentration of 0.5-2.0×10^6 PMBC/ mL. A small volume of the suspension was removed for counting on a hemocytometer and the remaining preparation was centrifuged at 200×g for 15 min at room temperature. The recovered pelleted PMBC's were resuspended in RPMI/1% FCS to a concentration of 1.67×10^6/mL.
# To run the assay, the PBMC suspension (180 μL) was transferred to duplicate wells of a 96-well flat-bottom microtiter plate and incubated for 1 h at 37° C. A solution of test compound (10 μL: prepared at 20× the desired final concentration) was added to each well and the plate was incubated for 1 h at 37° C. A solution (10 μL) of LPS in RPMI/1% FCS (200 ng/mL) was added and the wells were incubated overnight at 37° C. The supernate (100 μL) was removed from each well and diluted with RPMI/1% FCS (400 μL). The samples were analyzed for TNF-α using a commercial ELISA kit (Genzyme).
# P38 = P38 (Homo sapiens, UniProt Q16539); experiment: P38 cell, 1 μM LJ; type: cell-based; set-up: unit not given here
# TNF-α [2] = experiment: In vivo rodent assay for inhibition of LPS-induced TNF-α production; set-up: species or system Mice (BALB/cJ females); conditions: Mus musculus, po, 10 mg/kg oral
# Method: Mice (BALB/cJ females, Jackson Laboratories) or rats (Lewis males, Charles River) were fasted for 30 min. The animals were dosed orally on a mg/kg basis at a range of times prior to being injected intraperitoneally with LPS at 1 mg/kg and returned to their cages for 1 h. Animals were anesthetized by CO2, exsanguinated by cardiac puncture and whole blood collected (0.1-0.7 mL). The blood was allowed to clot and serum was transferred to a centrifuge tube. This sample was centrifuged, and serum was collected, aliquoted and frozen at −80° C. Samples were tested by commercial ELISA's for TNF-α (Endogen for mouse TNF-α and Biosource for rat TNF-α).
# [3] = 0.5 h, 0.5 h, read-out: Mouse 10 mg/kg % inhib 0.5 h
# [4] = 2 h, 2 h, read-out: Mouse 10 mg/kg % inhib 2 h
# Chain of P38 (Q16539 whole entry): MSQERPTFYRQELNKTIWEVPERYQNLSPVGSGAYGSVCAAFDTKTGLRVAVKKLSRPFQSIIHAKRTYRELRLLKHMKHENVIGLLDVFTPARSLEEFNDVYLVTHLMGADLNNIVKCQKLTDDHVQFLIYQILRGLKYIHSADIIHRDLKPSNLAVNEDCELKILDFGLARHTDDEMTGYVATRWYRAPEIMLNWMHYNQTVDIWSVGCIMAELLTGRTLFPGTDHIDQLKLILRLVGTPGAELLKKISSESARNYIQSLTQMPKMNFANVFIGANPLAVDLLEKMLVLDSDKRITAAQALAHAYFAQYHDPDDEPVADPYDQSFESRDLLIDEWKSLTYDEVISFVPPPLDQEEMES
IC50 (TNF-α [1]),P38 cell 1 μM LJ (P38),SMILES,inhibition in vivo at 10 mg/kg (TNF-α [2]; [3]),inhibition in vivo at 10 mg/kg (TNF-α [2]; [4])
42 nM,–,COC(=O)c1c(-c2ccc(F)cc2)c(-c2ccncc2)c(NCc2ccc(OC)cc2)n1C [Cpd 160],79%,-46%
852 nM,–,CN(C)CCn1cc(-c2ccncc2)c(-c2ccc(F)cc2)c1CO [Cpd 147],20%,–
326 nM,–,COC(=O)C1CCn2cc(-c3ccncc3)c(-c3ccc(F)cc3)c2C1=O (stereo not shown) [Cpd 133],-9%,–
315 nM,–,COC(=O)c1c(-c2ccc(F)cc2)c(-c2ccncc2)c(NC2CCNCC2)n1C [Cpd 131],7%,–
5 nM,–,COC(=O)CN1CCN(c2c(-c3ccncc3)c(-c3ccc(F)cc3)c(C(=O)OC)n2C)CC1 [Cpd 181],–,26%
269 nM,–,COC(=O)c1c(-c2ccc(F)cc2)c(-c2ccncc2)c(N2CCN(CC3CC3)CC2)n1C [Cpd 128],66.3%,–
105 nM,–,CCn1c(C(=O)OC)c(-c2ccc(F)cc2)c(-c2ccncc2)c1N(C)CCN1CCOCC1 [Cpd 163],66%,13%
1560 nM,–,COC(=O)c1c(-c2ccc(F)cc2)c(-c2ccncc2)c(Nc2ccc(N3CCOCC3)cc2)n1C [Cpd 159],29%,–
190 nM,–,COc1ccc(CNCc2[nH]cc(-c3ccncc3)c2-c2ccc(F)cc2)cc1 [Cpd 138],-30%,–
819 nM,–,O=C1CCn2c(Br)c(-c3ccncc3)c(-c3ccc(F)cc3)c21 [Cpd 129],31%,–
7.7 nM,–,COC(=O)c1c(-c2ccc(F)cc2)c(-c2ccncc2)c(C#CCN2CCN(C)CC2)n1C [Cpd 184],–,57%
72 nM,–,CON(C)C(=O)c1c(-c2ccc(F)cc2)c(-c2ccncc2)c(N2CCN(C(=O)OC(C)(C)C)CC2)n1C [Cpd 145],45%,–
150 nM,–,O=C1CCCn2cc(-c3ccncc3)c(-c3ccc(F)cc3)c21 [Cpd 134],61%,31%
443 nM,–,COCC#Cc1c(-c2ccc(F)cc2)c(-c2ccncc2)c(C(=O)OC)n1C [Cpd 172],-5%,–
370 nM,–,CC(=O)c1c(-c2ccc(F)cc2)c(-c2ccncc2)c(N2CCN(C)CC2)n1C [Cpd 178],–,40%

# The remaining lines, values behind:
SMILES,IC50 (TNF-α [1]),P38 cell 1 μM LJ (P38),inhibition in vivo at 10 mg/kg (TNF-α [2]; [3]),inhibition in vivo at 10 mg/kg (TNF-α [2]; [4])
CN(C)C(=O)c1c(-c2ccc(F)cc2)c(-c2ccncc2)c(Br)n1C [Cpd 97],301 nM,1,-41%,–
CC(C)NC(=O)c1c(-c2ccc(F)cc2)c(-c2ccncc2)c(N2CCNCC2)n1C [Cpd 89],–,22,–,–
COC(=O)c1c(-c2ccc(F)cc2)c(-c2ccncc2)c(N2CCCC2)n1C [Cpd 80],17 nM,32,-38%,–
COC(=O)c1c(-c2ccc(F)cc2)c(-c2ccncc2)cn1CCN1CCOCC1 [Cpd 60],10000 nM,1,–,–
CCOC(=O)c1[nH]cc(-c2ccncc2)c1-c1ccc(C)cc1 [Cpd 75],136 nM,42,–,–
CC(=O)c1c(-c2ccc(F)cc2)c(-c2ccncc2)c(N2CCN(C(C)=O)CC2)n1C [Cpd 92],43 nM,6,61%,28%
CCOC(=O)c1c(-c2ccc(F)cc2)c(-c2ccncc2)c(Br)n1C [Cpd 87],86 nM,4,–,–
CC(=O)c1c(-c2ccc(F)cc2)c(-c2ccncc2)c(N2CCNCC2)n1C [Cpd 91],40 nM,29,39%,–
CCOC(=O)c1c(-c2ccc(F)cc2)c(-c2ccncc2)cn1C [Cpd 86],125 nM,−2,–,–
CCOC(=O)c1c(-c2ccc(Br)cc2)c(-c2ccncc2)cn1C [Cpd 77],211 nM,62,–,–
CC(C)C(C)NC(=O)c1c(-c2ccc(F)cc2)c(-c2ccncc2)c(N2CCNCC2)n1C (stereo not shown) [Cpd 90],–,15,–,–
COC(=O)c1c(-c2ccc(F)cc2)c(-c2ccncc2)c(N2CCN(C3CCCC3)CC2)n1C [Cpd 125],139 nM,–,48.6%,–
CCOC(=O)c1[nH]cc(-c2ccncc2)c1-c1cccc(C(F)(F)F)c1 [Cpd 57],96 nM,–,-8%,–
Cn1c(C(=O)C2CC2)c(-c2ccc(F)cc2)c(-c2ccncc2)c1N1CCN(C(=O)C2CC2)CC1 [Cpd 107],36 nM,11,–,–
"CCNC(=O)N1CCN(c2c(-c3ccncc3)c(-c3ccc(F)cc3)c(C(=O)OC)n2C)CC1 [Cpd 13, 5-[4-[(Ethylamino)carbonyl]-1-piperazinyl]-3-(4-fluorophenyl)-1-methyl-4-(4-pyridinyl)-1H-pyrrole-2-carboxylic acid methyl ester]",2920 nM,–,-38%,–
"CCN1C(=O)c2c(-c3ccncc3)c(-c3ccc(F)cc3)cn2C1=O [Cpd 31, 2-Ethyl-6-(4-fluorophenyl)-7-(4-pyridinyl)-1H-pyrrolo[1,2-c]imidazole-1,3(2H)-dione]",401 nM,–,72%,–
"COC(=O)c1c(-c2ccncc2)c(-c2ccc(F)cc2)c(Br)n1C [Cpd 43, 5-Bromo-4-(4-fluorophenyl)-1-methyl-3-(4-pyridinyl)-1H-pyrrole-2-carboxylic acid methyl ester]",180 nM,–,-6%,–
"O=C1CCCn2c(NCCN3CCOCC3)c(-c3ccncc3)c(-c3ccc(F)cc3)c21 [Cpd 24, 1-(4-Fluorophenyl)-6,7-dihydro-3-[[2-(4-morpholinyl)ethyl]amino]-2-(4-pyridinyl)-8(5H)-indolizinone]",2560 nM,–,51%,–
"Cn1cc(-c2ccncc2)c(-c2ccc(F)cc2)c1-c1nnco1 [Cpd 35, 4-[4-(4-Fluorophenyl)-1-methyl-5-(1,3,4-oxadiazol-2-yl)-1H-pyrrol-3-yl]pyridine]",18 nM,–,60%,-1%
CCCNC(=O)c1c(-c2ccc(F)cc2)c(-c2ccncc2)c(N2CCNCC2)n1C [Cpd 88],10000 nM,7,–,–
"COC(=O)c1c(-c2ccncc2)c(-c2ccc(F)cc2)c(C#CCN2CCOCC2)n1C [Cpd 44, 4-(4-Fluorophenyl)-1-methyl-5-[3-(4-morpholinyl)-1-propynyl]-3-(4-pyridinyl)-1H-pyrrole-2-carboxylic acid methyl ester]",788 nM,–,–,47%
COC(=O)c1c(-c2ccc(F)cc2)c(-c2ccncc2)c(N2CCN(C(C)=O)CC2)n1C [Cpd 116],1530 nM,–,57%,–
"Fc1ccc(-c2cn3c(c2-c2ccncc2)CNCC3)cc1 [Cpd 30, 7-(4-Fluorophenyl)-1,2,3,4-tetrahydro-8-(4-pyridinyl)-pyrrolo[1,2-a]pyrazine]",208 nM,–,71%,–
COC(=O)c1c(-c2ccc(F)cc2)c(-c2ccncc2)c(N2CCN(C(=O)OC(C)(C)C)CC2)n1C [Cpd 8a],4260 nM,28,–,–
